For 33 molecules, IC50 results are on record in patent publication US8124610B2, “Sodium channel inhibitors” (Icagen Inc., priority 2007, dated 2012).

In this assay the target is T1, hSCN9A (Homo sapiens, UniProt Q15858).
T1 construct: expressed in transfected cells
Description: Whole-cell patch-clamp electrophysiology (conventional or PatchXpress), HEK cells expressing hSCN9A, estimated IC-50. The assay is classed as cell-based. As to conditions: estimated IC-50, HEK cells expressing hSCN9A; class symbols or bounds; read-out: SCN9A EIC-50. In outline: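 Stably transfected HEK cells recorded by whole-cell voltage clamp (manual or PatchXpress) at 22–24 °C in pH 7.4 HEPES-buffered extracellular solution. Cells held at the empirically determined inactivation V1/2 after an 8 s prepulse, then stepped to 0 mV for 20 ms; % inhibition from current amplitude before vs after compound.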

T1 sequence (Q15858 whole entry): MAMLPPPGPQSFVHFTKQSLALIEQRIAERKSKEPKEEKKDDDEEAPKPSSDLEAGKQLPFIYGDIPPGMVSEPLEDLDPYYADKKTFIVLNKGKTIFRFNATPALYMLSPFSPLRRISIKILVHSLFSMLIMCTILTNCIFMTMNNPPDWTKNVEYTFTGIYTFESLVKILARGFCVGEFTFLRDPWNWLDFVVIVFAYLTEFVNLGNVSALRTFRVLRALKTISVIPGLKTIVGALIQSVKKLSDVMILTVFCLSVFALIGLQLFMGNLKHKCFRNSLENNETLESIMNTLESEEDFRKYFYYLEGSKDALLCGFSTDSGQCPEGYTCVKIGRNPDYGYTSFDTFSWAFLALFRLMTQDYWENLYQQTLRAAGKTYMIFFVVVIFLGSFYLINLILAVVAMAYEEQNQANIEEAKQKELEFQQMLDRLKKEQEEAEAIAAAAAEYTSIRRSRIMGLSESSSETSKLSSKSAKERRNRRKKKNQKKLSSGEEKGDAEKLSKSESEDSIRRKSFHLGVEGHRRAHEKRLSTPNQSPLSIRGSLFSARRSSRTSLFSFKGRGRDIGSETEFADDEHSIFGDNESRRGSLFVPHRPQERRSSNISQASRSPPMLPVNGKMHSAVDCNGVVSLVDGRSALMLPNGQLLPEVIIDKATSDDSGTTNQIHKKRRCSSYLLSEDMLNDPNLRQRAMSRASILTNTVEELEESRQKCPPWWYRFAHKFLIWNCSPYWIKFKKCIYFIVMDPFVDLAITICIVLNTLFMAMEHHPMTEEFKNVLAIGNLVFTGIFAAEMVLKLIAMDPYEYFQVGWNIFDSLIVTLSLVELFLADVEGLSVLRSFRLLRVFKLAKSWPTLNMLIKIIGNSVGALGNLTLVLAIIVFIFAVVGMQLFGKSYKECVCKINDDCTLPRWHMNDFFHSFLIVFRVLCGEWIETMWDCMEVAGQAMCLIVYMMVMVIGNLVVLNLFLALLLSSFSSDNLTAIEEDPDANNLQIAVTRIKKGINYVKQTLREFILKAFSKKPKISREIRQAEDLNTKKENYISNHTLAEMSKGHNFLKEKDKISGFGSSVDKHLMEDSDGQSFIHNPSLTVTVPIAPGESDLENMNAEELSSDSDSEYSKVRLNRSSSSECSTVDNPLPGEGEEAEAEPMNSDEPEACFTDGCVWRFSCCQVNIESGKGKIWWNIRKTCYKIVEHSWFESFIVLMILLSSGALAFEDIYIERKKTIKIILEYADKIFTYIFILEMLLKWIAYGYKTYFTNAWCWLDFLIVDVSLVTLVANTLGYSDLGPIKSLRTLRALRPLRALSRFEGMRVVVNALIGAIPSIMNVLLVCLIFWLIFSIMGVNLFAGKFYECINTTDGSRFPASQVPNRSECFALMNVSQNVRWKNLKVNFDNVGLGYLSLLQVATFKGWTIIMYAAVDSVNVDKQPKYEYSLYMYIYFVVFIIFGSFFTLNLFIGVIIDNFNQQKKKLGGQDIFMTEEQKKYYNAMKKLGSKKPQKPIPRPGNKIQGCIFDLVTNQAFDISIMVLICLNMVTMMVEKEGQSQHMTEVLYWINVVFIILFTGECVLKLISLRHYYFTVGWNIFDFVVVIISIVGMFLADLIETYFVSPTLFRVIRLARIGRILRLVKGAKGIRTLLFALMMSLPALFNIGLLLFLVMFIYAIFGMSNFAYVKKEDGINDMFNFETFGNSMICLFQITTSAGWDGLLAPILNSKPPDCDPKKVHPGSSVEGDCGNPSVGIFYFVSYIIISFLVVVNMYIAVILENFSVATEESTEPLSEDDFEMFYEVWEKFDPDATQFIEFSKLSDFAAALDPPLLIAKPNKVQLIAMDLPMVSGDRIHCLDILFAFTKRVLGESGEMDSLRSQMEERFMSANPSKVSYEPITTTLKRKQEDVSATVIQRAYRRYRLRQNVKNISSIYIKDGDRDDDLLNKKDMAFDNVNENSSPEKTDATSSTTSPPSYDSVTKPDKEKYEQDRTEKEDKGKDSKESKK

`O=S(=O)(Nc1nccs1)c1ccc(Nc2ccn(Cc3ccc(F)cc3)n2)c(F)c1` [Compound 226, 3-fluoro-4-(1-(4-fluorobenzyl)-1H-pyrazol-3-ylamino)-N-(thiazol-2-yl)benzenesulfonamide]: the IC50 is less than 2 µM. For `O=S(=O)(Nc1nccs1)c1ccc(Nc2cnn(Cc3ccc(Cl)c(C(F)(F)F)c3)c2)cc1F` [Compound 229, 4-(1-(4-chloro-3-(trifluoromethyl)benzyl)-1H-pyrazol-4-ylamino)-2-fluoro-N-(thiazol-2-yl)benzenesulfonamide], the IC50 is less than 2 µM. On to `COc1ccc(OC(F)(F)F)cc1Cn1cc(Nc2ccc(S(=O)(=O)Nc3nccs3)c(F)c2)cn1` [Compound 230, 2-fluoro-4-(1-(2-methoxy-5-(trifluoromethoxy)benzyl)-1H-pyrazol-4-ylamino)-N-(thiazol-2-yl)benzenesulfonamide], for which the IC50 was less than 2 µM. `O=S(=O)(Nc1nccs1)c1ccc(Nc2cnn(Cc3ccc(Cl)cc3)c2)cn1` [Compound 231, 5-(1-(4-chlorobenzyl)-1H-pyrazol-4-ylamino)-N-(thiazol-2-yl)pyridine-2-sulfonamide]: the IC50 is 2 to 10 µM. Take `O=S(=O)(Nc1nncs1)c1ccc(Nc2ccn(Cc3ccc(Cl)cc3)n2)cc1F` [Compound 232, 4-(1-(4-chlorobenzyl)-1H-pyrazol-3-ylamino)-2-fluoro-N-(1,3,4-thiadiazol-2-yl)benzenesulfonamide]: the IC50 is less than 2 µM.

Consider `Cc1cc(Nc2ccc(S(=O)(=O)Nc3nccs3)nc2)n(-c2ccccc2)n1` [Compound 234, 5-(3-methyl-1-phenyl-1H-pyrazol-5-ylamino)-N-(thiazol-2-yl)pyridine-2-sulfonamide], for which the IC50 is 2 to 10 µM. Take `Cc1cc(Nc2ccc(S(=O)(=O)Nc3nc(C)ns3)c(F)c2)n(-c2ccccc2)n1` [Compound 236, 2-fluoro-N-(3-methyl-1,2,4-thiadiazol-5-yl)-4-(3-methyl-1-phenyl-1H-pyrazol-5-ylamino)benzenesulfonamide]: the IC50 was 2 to 10 µM. For `Cc1cc(Nc2ccc(S(=O)(=O)Nc3nnc(C)o3)c(F)c2)n(-c2ccccc2)n1` [Compound 237, 2-fluoro-N-(5-methyl-1,3,4-oxadiazol-2-yl)-4-(3-methyl-1-phenyl-1H-pyrazol-5-ylamino)benzenesulfonamide] the value was 2 to 10 µM. For `Cc1cc(Nc2ccc(S(=O)(=O)Nc3nncs3)c(F)c2)n(-c2ccccc2)n1` [Compound 238, 2-fluoro-4-(3-methyl-1-phenyl-1H-pyrazol-5-ylamino)-N-(1,3,4-thiadiazol-2-yl)benzenesulfonamide] the value was 2 to 10 µM. Take `Cc1cc(Nc2ccc(S(=O)(=O)Nc3ncc(C)s3)c(F)c2)n(-c2ccccc2)n1` [Compound 239, 2-fluoro-4-(3-methyl-1-phenyl-1H-pyrazol-5-ylamino)-N-(5-methylthiazol-2-yl)benzenesulfonamide]: the IC50 was 2 to 10 µM. Consider `Cc1cc(Nc2ccc(S(=O)(=O)Nc3ncns3)c(F)c2)n(-c2ccccc2)n1` [Compound 240, 2-fluoro-4-(3-methyl-1-phenyl-1H-pyrazol-5-ylamino)-N-(1,2,4-thiadiazol-5-yl)benzenesulfonamide], for which the IC50 was 2 to 10 µM. The value for `Cc1cc(Nc2ccc(S(=O)(=O)Nc3nnc(-c4ccccc4)s3)c(F)c2)n(-c2ccccc2)n1` [Compound 241, 2-fluoro-4-(3-methyl-1-phenyl-1H-pyrazol-5-ylamino)-N-(5-phenyl-1,3,4-thiadiazol-2-yl)benzenesulfonamide] was 2 to 10 µM; that for `O=S(=O)(Nc1nnc(C(F)(F)F)s1)c1ccc(Nc2ccn(Cc3ccc(Cl)cc3)n2)cc1F` [Compound 243, 4-(1-(4-chlorobenzyl)-1H-pyrazol-3-ylamino)-2-fluoro-N-(5-(trifluoromethyl)-1,3,4-thiadiazol-2-yl)benzenesulfonamide] was 2 to 10 µM; that for `CCc1nnc(NS(=O)(=O)c2ccc(Nc3cc(C)nn3-c3ccccc3)cc2F)s1` [Compound 246, N-(5-ethyl-1,3,4-thiadiazol-2-yl)-2-fluoro-4-(3-methyl-1-phenyl-1H-pyrazol-5-ylamino)benzenesulfonamide] was more than 1 µM. As to `Cc1cc(Nc2ccc(S(=O)(=O)Nc3nnc(C)s3)c(F)c2)n(-c2ccccc2)n1` [Compound 247, 2-fluoro-N-(5-methyl-1,3,4-thiadiazol-2-yl)-4-(3-methyl-1-phenyl-1H-pyrazol-5-ylamino)benzenesulfonamide], the IC50 was more than 1 µM. For `Cc1cc(Nc2ccc(S(=O)(=O)Nc3nnc(C(F)F)s3)c(F)c2)n(-c2ccccc2)n1` [Compound 248, N-(5-(difluoromethyl)-1,3,4-thiadiazol-2-yl)-2-fluoro-4-(3-methyl-1-phenyl-1H-pyrazol-5-ylamino)benzenesulfonamide], the IC50 was 2 to 10 µM.

In the case of `COCc1nnc(NS(=O)(=O)c2ccc(Nc3cc(C)nn3-c3ccccc3)cc2F)s1` [Compound 249, 2-fluoro-N-(5-(methoxymethyl)-1,3,4-thiadiazol-2-yl)-4-(3-methyl-1-phenyl-1H-pyrazol-5-ylamino)benzenesulfonamide], the IC50 is more than 1 µM. As to `Cc1cc(Nc2ccc(S(=O)(=O)Nc3nnc(C4CC4)s3)c(F)c2)n(-c2ccccc2)n1` [Compound 250, N-(5-cyclopropyl-1,3,4-thiadiazol-2-yl)-2-fluoro-4-(3-methyl-1-phenyl-1H-pyrazol-5-ylamino)benzenesulfonamide], the IC50 was more than 1 µM. As to `Cc1nnc(NS(=O)(=O)c2ccc(Nc3ccn(Cc4ccc(Cl)cc4)n3)cc2F)s1` [Compound 251, 4-(1-(4-chlorobenzyl)-1H-pyrazol-3-ylamino)-2-fluoro-N-(5-methyl-1,3,4-thiadiazol-2-yl)benzenesulfonamide], the IC50 was more than 1 µM. For the molecule `Cc1cc(Nc2ccc(S(=O)(=O)Nc3nnc(C(C)C)s3)c(F)c2)n(-c2ccccc2)n1` [Compound 252, 2-fluoro-N-(5-isopropyl-1,3,4-thiadiazol-2-yl)-4-(3-methyl-1-phenyl-1H-pyrazol-5-ylamino)benzenesulfonamide], the IC50 is more than 1 µM.

Consider `O=S(=O)(Nc1nnc(C2CC2)s1)c1ccc(Nc2ccn(Cc3ccc(Cl)cc3)n2)cc1F` [Compound 253, 4-(1-(4-chlorobenzyl)-1H-pyrazol-3-ylamino)-N-(5-cyclopropyl-1,3,4-thiadiazol-2-yl)-2-fluorobenzenesulfonamide], for which the IC50 was more than 1 µM. `COCc1nnc(NS(=O)(=O)c2ccc(Nc3ccn(Cc4ccc(Cl)cc4)n3)cc2F)s1` [Compound 254, 4-(1-(4-chlorobenzyl)-1H-pyrazol-3-ylamino)-2-fluoro-N-(5-(methoxymethyl)-1,3,4-thiadiazol-2-yl)benzenesulfonamide]: the IC50 was more than 1 µM. On to `CCc1nnc(NS(=O)(=O)c2ccc(Nc3ccn(Cc4ccc(Cl)cc4)n3)cc2F)s1` [Compound 255, 4-(1-(4-chlorobenzyl)-1H-pyrazol-3-ylamino)-N-(5-ethyl-1,3,4-thiadiazol-2-yl)-2-fluorobenzenesulfonamide], for which the IC50 is more than 1 µM. Take `CC(C)c1nnc(NS(=O)(=O)c2ccc(Nc3ccn(Cc4ccc(Cl)cc4)n3)cc2F)s1` [Compound 256, 4-(1-(4-chlorobenzyl)-1H-pyrazol-3-ylamino)-2-fluoro-N-(5-isopropyl-1,3,4-thiadiazol-2-yl)benzenesulfonamide]: the IC50 was more than 1 µM. Consider `O=S(=O)(Nc1nc(C(F)(F)F)cs1)c1ccc(Nc2nc(Cc3ccc(Cl)cc3)cs2)cc1` [Compound 257, 4-(4-(4-chlorobenzyl)thiazol-2-ylamino)-N-(4-(trifluoromethyl)thiazol-2-yl)benzenesulfonamide], for which the IC50 is 2 to 10 µM. Regarding `O=S(=O)(Nc1nc(C(F)(F)F)co1)c1ccc(Nc2nc(Cc3ccc(Cl)cc3)cs2)cc1` [Compound 258, 4-(4-(4-chlorobenzyl)thiazol-2-ylamino)-N-(4-(trifluoromethyl)oxazol-2-yl)benzenesulfonamide], the IC50 was more than 1 µM. For `Cc1cccc(NS(=O)(=O)c2ccc(Nc3ccn(Cc4ccc(Cl)cc4)n3)cc2F)n1` [Compound 259, 4-(1-(4-chlorobenzyl)-1H-pyrazol-3-ylamino)-2-fluoro-N-(6-methylpyridin-2-yl)benzenesulfonamide] the value was more than 3 µM; for `O=S(=O)(Nc1cccnn1)c1ccc(Nc2ccn(Cc3ccc(Cl)cc3)n2)cc1F` [Compound 260, 4-(1-(4-chlorobenzyl)-1H-pyrazol-3-ylamino)-2-fluoro-N-(pyridazin-3-yl)benzenesulfonamide], more than 1 µM. `Cc1nnc(NS(=O)(=O)c2ccc(Nc3ccn(Cc4ccc(Cl)cc4)n3)cc2F)o1` [Compound 261, 4-(1-(4-chlorobenzyl)-1H-pyrazol-3-ylamino)-2-fluoro-N-(5-methyl-1,3,4-oxadiazol-2-yl)benzenesulfonamide]: the IC50 was more than 1 µM. For `O=S(=O)(Nc1ccncn1)c1ccc(Nc2ccn(Cc3ccc(Cl)cc3)n2)cc1F` [Compound 262, 4-(1-(4-chlorobenzyl)-1H-pyrazol-3-ylamino)-2-fluoro-N-(pyrimidin-4-yl)benzenesulfonamide] the value was 2 to 10 µM; for `O=S(=O)(Nc1nncs1)c1ccc(Nc2ccn(Cc3ccc(Cl)cc3)n2)cc1C(F)(F)F` [Compound 265, 4-(1-(4-chlorobenzyl)-1H-pyrazol-3-ylamino)-N-(1,3,4-thiadiazol-2-yl)-2-(trifluoromethyl)benzenesulfonamide], less than 2 µM; for `Cc1cc(Nc2cc(F)c(S(=O)(=O)Nc3nccs3)cc2F)n(-c2ccccc2)n1` [Compound 267, 2,5-difluoro-4-(3-methyl-1-phenyl-1H-pyrazol-5-ylamino)-N-(thiazol-2-yl)benzenesulfonamide], less than 2 µM. Regarding `Cc1cc(Nc2ccc(S(=O)(=O)Nc3nccs3)c(C)c2)n(-c2ccccc2)n1` [Compound 268, 2-methyl-4-(3-methyl-1-phenyl-1H-pyrazol-5-ylamino)-N-(thiazol-2-yl)benzenesulfonamide], the IC50 was 2 to 10 µM.
